# Measurements published in US9550742B2, “11-OXO-10,11-dihydrodibenzo[B,F][1,4]thiazepine S-oxide derivatives and their use as dopamine D2 receptor antagonists” (The United States of America, as Represented by the …, priority 2013, dated 2017).
# Like-named read-outs stand apart in the source and are kept apart here.
# Experiments:
# D2 DAR = target: T1, D2 DAR (Homo sapiens, UniProt P14416); assay: D2 Ca^2+ screen assay (calcium accumulation, HEK293 T-REx with Gqi5); assay type: cell-based
# T1 construct: expressed in transfected cells; host or cells: HEK293 T-REx, Tet-inducible, with chimeric G-protein Gqi5
# T1 sequence (P14416 whole entry): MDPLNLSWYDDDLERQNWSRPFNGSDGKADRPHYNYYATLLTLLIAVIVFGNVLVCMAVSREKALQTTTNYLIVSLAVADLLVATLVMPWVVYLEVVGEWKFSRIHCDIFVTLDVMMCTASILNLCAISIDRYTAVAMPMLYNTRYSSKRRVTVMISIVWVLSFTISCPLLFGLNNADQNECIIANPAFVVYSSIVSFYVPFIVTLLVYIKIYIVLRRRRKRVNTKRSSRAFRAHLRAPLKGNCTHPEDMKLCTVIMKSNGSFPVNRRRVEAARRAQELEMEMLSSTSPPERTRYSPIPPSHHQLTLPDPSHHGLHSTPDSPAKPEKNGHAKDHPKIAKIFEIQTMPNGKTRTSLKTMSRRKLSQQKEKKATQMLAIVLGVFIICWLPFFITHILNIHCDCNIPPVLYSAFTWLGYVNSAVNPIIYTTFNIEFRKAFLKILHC
# Procedure, shortened: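 HEK293 T-REx cells co-expressing Gqi5 were loaded with Fluo-8 AM dye in HBSS + 10 mM HEPES with quencher for 45–90 min in the dark at ambient temperature. 23 nL compound or dopamine control was pinned in, and cytosolic Ca2+ fluorescence was recorded on FDSS in non-stimulated mode for 180 s to detect agonism.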
# [1] = target: D3 dopamine receptor (DAR) (Homo sapiens, UniProt P35462); assay: D3 beta-arrestin functional assay (PathHunter, CHO); assay type: cell-based; conditions: dose response curve; read-out: D3 β-arrestin assay AC50
# Chain of D3 dopamine receptor (DAR) (P35462 whole entry): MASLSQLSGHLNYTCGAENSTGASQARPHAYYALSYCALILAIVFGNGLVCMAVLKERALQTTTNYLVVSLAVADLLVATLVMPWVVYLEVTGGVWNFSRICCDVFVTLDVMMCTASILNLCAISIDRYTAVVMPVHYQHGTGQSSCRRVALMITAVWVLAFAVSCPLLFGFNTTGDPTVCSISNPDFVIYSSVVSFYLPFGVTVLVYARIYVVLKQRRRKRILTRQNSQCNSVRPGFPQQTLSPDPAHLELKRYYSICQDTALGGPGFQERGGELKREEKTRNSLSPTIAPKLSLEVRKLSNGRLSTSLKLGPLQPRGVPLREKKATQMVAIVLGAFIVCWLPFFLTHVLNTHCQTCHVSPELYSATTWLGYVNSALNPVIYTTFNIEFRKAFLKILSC
# Description: A CHO cell line was engineered to overexpress D3 dopamine receptor (DAR) and fused with a small 42-amino acid fragment of β-gal called ProLink™. In addition, these cells stably express a fusion protein of β-arrestin and a larger N-terminal deletion mutant of β-galactosidase (“enzyme acceptor”). When DAR is activated by dopamine, it stimulates binding of β-arrestin to ProLink-tagged DARs, and the two complementary parts of β-galactosidase form a functional enzyme. When substrate (PathHunter® Detection reagent) is added, βgalactosidase hydrolyzes it and generates a chemiluminescent signal.
# For the 1,536-well assay, D3 PathHunter® β-arrestin cells were seeded at 2,100 cells/well in 3 μL/well media (DiscoveRx Plating Reagent 2) with MultiDrop Combi dispenser (Thermo Scientific, Logan, Utah) onto white tissue culture treated 1,536-well Aurora plates (Brooks Automation, Chelmsford, Mass.) and allowed to attach overnight at 37° C., 5% CO2. Next, 23 nL/well of compound solutions in DMSO were added with a pintool transfer (Kalypsis, San Diego, Calif.). The cells were stimulated by compounds for 90 minutes at 37° C., 5% CO2, after which 1.5 μL/well of DiscoveRx detection reagent was added with BioRAPTR FRD dispenser. […] The plates were incubated at ambient temperature for 1 h, and the luminescent signal was read on ViewLux plate reader (PerkinElmer, Waltham, Mass.).
# [2] = target: D2L human dopamine receptors (Homo sapiens, UniProt P14416); assay: D2 binding assay ([^3H]methylspiperone, HEK membranes)
# Chain of D2L human dopamine receptors (P14416 whole entry): as the sequence (P14416 whole entry) above
# Description: Compounds were tested for differences in affinity between three dopamine receptor subtypes using radio-labeled ligand binding assays. The first assay determined the Ki value of the compounds for the D2 DAR subtype using stable HEK cell lines expressing the D2L human dopamine receptors (Codex Biosciences, Gaithersburg, Md.). Cells were cultured in Dulbecco's modified Eagle's Medium containing 10% FBS, 1,000 units/mL Penicillin, 1,000 mg/mL Streptomycin, 100 mM Sodium Pyruvate, 1 μg/mL Gentamicin, and […] G418. All cells were maintained at 37° C. in 5% CO2 and 90% humidity. For radioligand binding assays, cells were removed mechanically using calcium and magnesium-free Earle's Balanced Salt Solution (EBSS(−)). Intact cells were collected by centrifugation and then lysed with 5 mM Tris-HCl and 5 mM MgCl2 at pH 7.4 in a glass homogenizer. Homogenates were centrifuged at 20,000×g for 30 minutes. The membranes were re-suspended in EBSS (pH 7.4) and protein concentration was determined using a Bradford assay according to the manufacturer's recommendations (Bio-Rad). Membranes were diluted to 24 mg/mL. […] Membrane preparations were incubated for 90 min at room temperature with various concentrations of radioligand in a reaction volume of 250 μL EBSS containing 200 mM sodium metabisulfite. Non-specific binding was determined in the presence of 4 μM (+)-butaclamol. Bound ligand was separated from unbound by filtration through GF/C filters using a PerkinElmer cell harvester with ice cold EBSS (4 washes) and quantified on a Top-count (PerkinElmer) after addition of scintillation solution. […] In order to determine the affinity of a given compound for a receptor type, competition-binding assays were performed. […] Reactions were incubated, terminated, and quantified as indicated above.
# 5-HT1A = 5-HT1A (Homo sapiens, UniProt P08908); assay: Affinity profile, panel of 46 GPCRs and related proteins: 5-HT1A; conditions: inhibition of binding
# Chain of 5-HT1A (P08908 whole entry, species assumed): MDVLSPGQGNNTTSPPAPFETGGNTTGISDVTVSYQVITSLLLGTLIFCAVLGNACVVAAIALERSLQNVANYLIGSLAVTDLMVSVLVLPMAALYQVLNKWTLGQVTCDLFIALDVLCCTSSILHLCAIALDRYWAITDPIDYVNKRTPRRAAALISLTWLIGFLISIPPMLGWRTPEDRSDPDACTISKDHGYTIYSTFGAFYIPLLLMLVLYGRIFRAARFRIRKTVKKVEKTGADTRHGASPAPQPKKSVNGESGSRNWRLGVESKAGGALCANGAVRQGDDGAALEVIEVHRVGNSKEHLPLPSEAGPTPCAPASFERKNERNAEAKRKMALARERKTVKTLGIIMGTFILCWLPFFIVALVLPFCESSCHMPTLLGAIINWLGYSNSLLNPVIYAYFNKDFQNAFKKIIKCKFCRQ
# 5-HT1B = 5-HT1B (Homo sapiens, UniProt P28222); assay: Affinity profile panel: 5-HT1B; conditions: inhibition of binding
# Chain of 5-HT1B (P28222 whole entry, species assumed): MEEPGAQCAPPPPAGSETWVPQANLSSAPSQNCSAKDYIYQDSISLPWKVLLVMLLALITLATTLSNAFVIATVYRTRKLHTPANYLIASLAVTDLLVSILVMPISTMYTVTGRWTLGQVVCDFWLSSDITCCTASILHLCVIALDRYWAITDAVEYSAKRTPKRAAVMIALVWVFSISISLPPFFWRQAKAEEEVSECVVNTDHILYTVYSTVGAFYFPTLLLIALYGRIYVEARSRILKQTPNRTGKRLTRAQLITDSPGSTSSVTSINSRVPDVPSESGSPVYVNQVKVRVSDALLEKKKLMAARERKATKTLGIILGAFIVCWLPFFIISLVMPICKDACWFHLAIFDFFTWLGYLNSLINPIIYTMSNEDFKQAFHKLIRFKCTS
# 5-HT1D = 5-HT1D (Homo sapiens, UniProt P28221); assay: Affinity profile panel: 5-HT1D; conditions: inhibition of binding
# Chain of 5-HT1D (P28221 whole entry, species assumed): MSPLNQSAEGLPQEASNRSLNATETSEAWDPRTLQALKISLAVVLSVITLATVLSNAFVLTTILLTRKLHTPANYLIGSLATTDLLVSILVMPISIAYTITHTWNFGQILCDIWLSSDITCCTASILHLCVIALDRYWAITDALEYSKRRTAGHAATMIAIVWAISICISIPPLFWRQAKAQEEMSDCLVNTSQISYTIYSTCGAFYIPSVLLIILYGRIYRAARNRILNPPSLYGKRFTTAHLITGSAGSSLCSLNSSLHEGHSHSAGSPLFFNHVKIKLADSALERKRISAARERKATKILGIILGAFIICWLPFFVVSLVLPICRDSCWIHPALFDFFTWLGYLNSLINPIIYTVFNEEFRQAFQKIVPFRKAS
# Alpha2B = Alpha2B (Homo sapiens, UniProt P18089); assay: Affinity profile panel: Alpha2B; conditions: inhibition of binding
# Chain of Alpha2B (P18089 whole entry): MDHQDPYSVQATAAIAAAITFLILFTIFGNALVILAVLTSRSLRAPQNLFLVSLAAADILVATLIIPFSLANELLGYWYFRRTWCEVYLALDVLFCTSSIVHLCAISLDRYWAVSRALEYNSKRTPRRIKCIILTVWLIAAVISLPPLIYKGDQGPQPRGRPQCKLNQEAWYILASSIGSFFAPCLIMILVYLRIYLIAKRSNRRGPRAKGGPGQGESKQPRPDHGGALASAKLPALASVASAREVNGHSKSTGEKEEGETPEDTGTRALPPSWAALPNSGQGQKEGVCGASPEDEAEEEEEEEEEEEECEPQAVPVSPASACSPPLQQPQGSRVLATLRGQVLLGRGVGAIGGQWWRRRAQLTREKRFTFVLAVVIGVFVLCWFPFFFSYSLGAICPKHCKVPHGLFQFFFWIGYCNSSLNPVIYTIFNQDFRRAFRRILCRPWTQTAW
# Beta2 = Beta2 (Homo sapiens, UniProt P07550); assay: Affinity profile panel: Beta2; conditions: inhibition of binding
# Chain of Beta2 (P07550 whole entry): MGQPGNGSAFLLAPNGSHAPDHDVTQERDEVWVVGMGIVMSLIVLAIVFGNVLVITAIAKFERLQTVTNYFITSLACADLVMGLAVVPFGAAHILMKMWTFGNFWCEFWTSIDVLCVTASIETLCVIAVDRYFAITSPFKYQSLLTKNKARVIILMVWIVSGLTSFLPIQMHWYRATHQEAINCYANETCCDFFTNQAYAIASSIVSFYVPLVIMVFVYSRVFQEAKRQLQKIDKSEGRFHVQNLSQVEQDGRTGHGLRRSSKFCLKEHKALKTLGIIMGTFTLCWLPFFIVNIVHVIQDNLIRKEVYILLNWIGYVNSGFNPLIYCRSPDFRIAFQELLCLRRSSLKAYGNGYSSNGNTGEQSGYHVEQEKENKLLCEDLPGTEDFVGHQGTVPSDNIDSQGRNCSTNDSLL
# D3 = D3 (Homo sapiens, UniProt P35462); assay: Affinity profile panel: D3; conditions: inhibition of binding
# Chain of D3 (P35462 whole entry): as the sequence (P35462 whole entry) above
# H1 = H1 (Homo sapiens, UniProt P35367); assay: Affinity profile panel: H1; conditions: inhibition of binding
# H3 = H3 (Homo sapiens, UniProt Q9Y5N1); assay: Affinity profile panel: H3; conditions: inhibition of binding
# Chain of H3 (Q9Y5N1 whole entry): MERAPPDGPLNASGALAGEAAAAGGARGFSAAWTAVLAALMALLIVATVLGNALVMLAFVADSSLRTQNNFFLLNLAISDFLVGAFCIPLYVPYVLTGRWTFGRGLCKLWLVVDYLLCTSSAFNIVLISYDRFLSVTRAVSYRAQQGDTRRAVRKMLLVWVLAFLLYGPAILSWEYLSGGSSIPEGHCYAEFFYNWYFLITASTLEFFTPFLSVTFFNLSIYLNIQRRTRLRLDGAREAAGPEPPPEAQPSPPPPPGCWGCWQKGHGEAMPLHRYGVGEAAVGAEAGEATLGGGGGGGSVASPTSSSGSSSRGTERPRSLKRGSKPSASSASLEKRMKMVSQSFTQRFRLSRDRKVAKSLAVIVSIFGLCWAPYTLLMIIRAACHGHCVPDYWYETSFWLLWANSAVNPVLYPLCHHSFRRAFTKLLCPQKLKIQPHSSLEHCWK
# M4 = M4 (Homo sapiens, UniProt P08173); assay: Affinity profile panel: M4; conditions: inhibition of binding
# MOR = MOR (Homo sapiens, UniProt P35372); assay: Affinity profile panel: MOR; conditions: inhibition of binding
# Chain of MOR (P35372 whole entry): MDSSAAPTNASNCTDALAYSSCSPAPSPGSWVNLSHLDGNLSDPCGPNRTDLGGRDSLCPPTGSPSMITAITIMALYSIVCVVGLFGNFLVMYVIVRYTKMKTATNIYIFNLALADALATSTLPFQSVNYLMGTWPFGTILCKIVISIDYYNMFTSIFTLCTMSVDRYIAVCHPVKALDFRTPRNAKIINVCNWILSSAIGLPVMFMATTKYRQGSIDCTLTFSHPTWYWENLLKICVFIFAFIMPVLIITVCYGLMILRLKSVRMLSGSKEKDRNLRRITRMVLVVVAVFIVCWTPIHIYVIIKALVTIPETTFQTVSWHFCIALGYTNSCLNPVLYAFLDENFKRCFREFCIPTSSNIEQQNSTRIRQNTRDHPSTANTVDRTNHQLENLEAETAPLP
# SERT = SERT (Homo sapiens, UniProt P31645); assay: Affinity profile panel: SERT; conditions: inhibition of binding
# Chain of SERT (P31645 whole entry, species assumed): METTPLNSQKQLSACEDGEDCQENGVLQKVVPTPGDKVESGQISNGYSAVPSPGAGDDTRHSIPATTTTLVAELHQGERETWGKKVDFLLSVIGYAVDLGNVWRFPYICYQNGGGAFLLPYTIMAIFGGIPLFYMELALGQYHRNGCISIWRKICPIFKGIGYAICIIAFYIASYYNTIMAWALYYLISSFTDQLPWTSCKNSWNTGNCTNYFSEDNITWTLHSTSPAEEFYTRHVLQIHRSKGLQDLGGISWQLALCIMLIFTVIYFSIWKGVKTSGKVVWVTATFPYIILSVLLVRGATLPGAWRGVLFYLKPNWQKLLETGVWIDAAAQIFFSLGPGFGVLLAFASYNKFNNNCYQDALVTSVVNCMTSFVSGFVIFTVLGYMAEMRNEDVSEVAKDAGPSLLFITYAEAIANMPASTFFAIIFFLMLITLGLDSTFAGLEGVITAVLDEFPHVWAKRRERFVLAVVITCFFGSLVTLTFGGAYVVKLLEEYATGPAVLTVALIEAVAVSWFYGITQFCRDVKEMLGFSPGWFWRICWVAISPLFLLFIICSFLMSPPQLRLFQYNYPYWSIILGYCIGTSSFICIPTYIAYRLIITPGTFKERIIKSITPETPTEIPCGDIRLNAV
# Text: Antipsychotic drugs (depending on the specific drug) typically interact with a range of serotonergic, adrenergic, histaminergic, and muscarinic receptors.
# Sigma 2 = Sigma 2 (Homo sapiens, UniProt Q5BJF2); assay: Affinity profile panel: Sigma 2; conditions: inhibition of binding
# Chain of Sigma 2 (Q5BJF2 whole entry): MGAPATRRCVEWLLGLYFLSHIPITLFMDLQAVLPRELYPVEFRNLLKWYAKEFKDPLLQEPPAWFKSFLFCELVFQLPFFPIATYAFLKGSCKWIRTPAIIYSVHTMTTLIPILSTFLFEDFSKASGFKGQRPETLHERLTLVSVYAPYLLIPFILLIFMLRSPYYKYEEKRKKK
smiles,measurement,setting,value
"CN1C(=O)c2ccccc2[S@+]([O-])c2ccc(C(=O)NCCc3cccs3)cc21 [Compound 55, 10-Methyl-11-oxo-N-(2-(thiophen-2-yl)ethyl)-10,11-dihydrodibenzo[b,f][1,4]thiazepine-8-carboxamide 5-(S)-oxide]",AC50,"D2 DAR; dopamine D2 calcium release assay of Example 1, read-out: Ca^2+ AC50",< 1000 nM
same,AC50,"D2 DAR; dose response curve, read-out: D2 Ca^2+ assay AC50",70 nM
same,AC50,[1],12900 nM
same,Ki,[2],100 nM
same,D3/D2 binding Ki ratio,[2]; ratio of D3 (Example 5) to D2 (Example 3) binding assay,29.0
same,Inhibition (%) 5-HT1A,5-HT1A,8.2%
same,Inhibition (%) 5-HT1B,5-HT1B,24.0%
same,Inhibition (%) 5-HT1D,5-HT1D,13.1%
same,Inhibition (%) Alpha2B,Alpha2B,31.2%
same,Inhibition (%) Beta2,Beta2,−13.2%
same,Inhibition (%) D3,D3,59.1%
same,Inhibition (%) H1,H1,41.6%
same,Inhibition (%) H3,H3,−23.6%
same,Inhibition (%) M4,M4,2.4%
same,Inhibition (%) MOR,MOR,5.7%
same,Inhibition (%) SERT,SERT,4.8%
same,Inhibition (%) Sigma 2,Sigma 2,−16.5%
